Experimental data reported in patent publication US7700654B2 (LTS Lohmann Therapie-Systeme AG, priority 2005, dated 2010).

Key:
[1] = molecular target: T1, human androgen receptor (hAR) (Homo sapiens, UniProt P10275); assay: reporter gene-based (MMTV-luc luciferase) test for antiandrogenic activity in transfected CV1 cells; assay type: cell-based; conditions: compounds at 10 μM; high R1881 concentration 3×10^−8 M
T1 construct: expressed in transfected cells; host or cells: CV1 monkey kidney cells (lacking endogenous androgen receptor)
T1 sequence (P10275 1-920): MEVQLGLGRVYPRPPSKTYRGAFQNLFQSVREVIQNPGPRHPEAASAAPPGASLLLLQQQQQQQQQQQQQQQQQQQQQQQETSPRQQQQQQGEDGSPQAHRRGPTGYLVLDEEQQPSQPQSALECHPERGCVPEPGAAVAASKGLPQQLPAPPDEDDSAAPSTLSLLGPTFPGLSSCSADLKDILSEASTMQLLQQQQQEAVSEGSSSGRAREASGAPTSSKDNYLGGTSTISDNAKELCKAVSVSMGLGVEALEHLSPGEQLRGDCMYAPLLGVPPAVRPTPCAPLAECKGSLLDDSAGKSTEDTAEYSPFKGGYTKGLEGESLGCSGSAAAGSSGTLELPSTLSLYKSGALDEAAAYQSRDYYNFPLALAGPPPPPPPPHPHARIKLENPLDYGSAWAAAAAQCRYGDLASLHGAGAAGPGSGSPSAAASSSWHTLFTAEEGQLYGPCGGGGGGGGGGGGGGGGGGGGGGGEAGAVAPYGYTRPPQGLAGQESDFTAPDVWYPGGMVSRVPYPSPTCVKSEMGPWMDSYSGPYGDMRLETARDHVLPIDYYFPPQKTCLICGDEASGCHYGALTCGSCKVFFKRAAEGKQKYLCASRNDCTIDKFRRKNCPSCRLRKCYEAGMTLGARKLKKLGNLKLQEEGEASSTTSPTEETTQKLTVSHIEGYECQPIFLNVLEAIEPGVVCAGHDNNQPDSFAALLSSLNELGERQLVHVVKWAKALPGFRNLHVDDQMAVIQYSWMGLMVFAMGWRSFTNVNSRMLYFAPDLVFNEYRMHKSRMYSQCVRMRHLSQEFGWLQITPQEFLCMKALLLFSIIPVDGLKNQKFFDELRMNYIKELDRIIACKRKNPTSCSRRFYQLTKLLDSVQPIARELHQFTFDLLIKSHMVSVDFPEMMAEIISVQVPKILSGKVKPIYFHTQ
Description: Monkey kidney cells, line CV1, lacking endogenous androgen receptor were cultured in Dulbecco's modified Eagle's medium (DMEM), supplemented with 10% (v/v) fetal calf serum, penicillin (100 IU/ml) and streptomycin (100 IU/ml) at 37° C. and 5% CO2.
For the transfection experiments, cells were seeded onto 6-well tissue culture plates (Nunc, Roskilde, Denmark) with a density of 1.2×10^5 cells per well and grown in DMEM medium supplemented with 10% (v/v) dextran-coated activated charcoal stripped serum. Six hours after seeding, the cells were transfected by using the Ca3(PO4)2 method. The human androgen receptor (hAR) expression vector (0.2 μg) was cotransfected with 1 μg of the reporter plasmid MMTV-luc and 0.2 μg of the cytomegalovirus (CMV)-driven β-galactosidase expression […], as internal control for transfection efficiency. After 14 hours, the medium was replaced either without (white bars in FIGS. […] 1), fractions (FIG. 2) or substances (FIG. 3). After an additional 48 hours, cells were harvested and assayed for luciferase and β-galactosidase activity.
Luciferase activity was determined by injecting luciferin and measuring light emission at 562 nm and expressed as relative light units (RLU) by using the values of β-galactosidase activity for normalisation of the luciferase activity. All transfection assays shown were performed in duplicate and were repeated at least twice.
For determining antiandrogenic activity in the various extracts from the bark of P. africanum, the extracts were used at a concentration of 300 μg/ml.
For determining the antiandrogenic activity in the fractions of the selective methylene chloride extracts, 2 μl of the respective fraction was used, corresponding to a final concentration of 30 μg/ml. Fractions F6 to F10 were additionally tested with 4 μl, corresponding to 60 μg/ml final concentration.

LNCaP cells = assay: growth inhibition of human prostate carcinoma cells (cell counting); assay type: cell-based; conditions: 0.1 μM OH—F
Description: The growth of prostate cells and prostate cancer cells is originally dependent on androgens.
The cells were trypsinized and counted using a counting cell chamber on the indicated days.

[2] = cited from earlier work
[3] = environment; cited from earlier work

inhibition of the AR-mediated transactivation, compared with NBBS (FIG. 6) [1] | SMILES | further results
enhanced antiandrogenic activity | CCCCNS(=O)(=O)c1ccc([N+](=O)[O-])c(C(F)(F)F)c1 [S13, N-Butyl-4-nitro-3-(trifluoromethyl)benzenesulfonamide] | 
enhanced antiandrogenic activity | CC(C)=CCC/C(C)=C/CNS(=O)(=O)c1ccc([N+](=O)[O-])c(C(F)(F)F)c1 [S14, N-[(2E)-3,7-Dimethylocta-2,6-diene-1-yl]-4-nitro-3-(trifluoromethyl)-benzenesulfonamide] | 
enhanced antiandrogenic activity | CCCCNS(=O)(=O)c1cccc(C(F)(F)F)c1 [S10, N-Butyl-3-(trifluoromethyl)benzenesulfonamide] | 
enhanced the antiandrogenic activity | CCCCCNS(=O)(=O)c1ccccc1 [S9, N-Pentylbenzenesulfonamide] | 
 | CC(C)(O)C(=O)Nc1ccc([N+](=O)[O-])c(C(F)(F)F)c1 [OH—F, hydroxyflutamide] | proliferation of LNCaP cells (FIG. 4) (LNCaP cells): did not lead to reduction in cell proliferation
 | CCCCNS(=O)(=O)c1ccccc1 [NBBS, N-butylbenzenesulfonamide] | solubility in alcohols and benzene ([2]; alcohols and benzene): moderate solubility; solubility in water ([2]; water): practically insoluble; stability [3]: very stable
enhanced the antiandrogenic activity | CC(C)=CCC/C(C)=C/CNS(=O)(=O)c1ccccc1 [S4, N-[(2E)-3,7-Dimethylocta-2,6-diene-1-yl]benzenesulfonamide] | 
enhanced antiandrogenic activity | CC(C)=CCC/C(C)=C/CNS(=O)(=O)c1cccc(C(F)(F)F)c1 [S11, N-[(2E)-3,7-dimethylocta-2,6-diene-1-yl]-3-(tri-fluoromethyl)benzenesulfonamide] | 

SMILES | inhibition of the AR-mediated transactivation, compared with NBBS (FIG. 6) [1] | further results
CCCCCCCCCCCCNS(=O)(=O)c1ccccc1 [S12, N-Dodecylbenzenesulfonamide] | weakened the androgen antagonistic potency | melting point: 59 to 61 °C
